# Data from patent US8410046B2, “Antibiotic peptide derived from ribosomal protein L1 of Helicobacter pylori and use thereof” (Industry-Academic Cooperation Foundation, Chosun University, priority 2008, dated 2013).
# “Also recorded” adds a separate entry of the source. Like-named read-outs stand apart in the source and are kept apart here. Where no end group is shown, it is not given here.
# How the values were obtained:
# Assay type in all cases: cell-based
# [1] = test system: Bacillus subtilis (KCTC 1918); conditions: Gram positive bacterium; 6 hours at 37° C.
# Source text: (§1) The present inventors measured MIC, which is the minimum concentration of not divided bacterial cell, in order to compare the antimicrobial activity of the peptide prepared by the method of <experimental example 1>.
# (§2) More specifically, the present inventors used Escherichia coli, Pseudomonas aeruginosa, Proteus vulgaris, Salmonella typhimurium as a Gram negative bacterium and used Staphylococcus aureus, Listeria monocytogenes, Staphylococcus epidermidis, Bacillus subtilis as a Gram positive bacterium. In addition, Escherichia coli (ATCC 25922), Listeria monocytogenes (ATCC 19115), and Staphylococcus aureus (ATCC 25923) were provided by “American Type Culture Collection” and Bacillus subtilis (KCTC 1918), […] (KCTC 3096), Pseudomonas aeruginosa (KCTC 1637) and Proteus vulgaris (KCTC 2433) were provided by “Korean Collection for Type Cultures”. After culturing each strain by up to mid-log phase in LB medium (1% Bacto tryptone, 0.5% extraction of Bacto yeast, 1% sodium chloride; Sigma, USA) and diluting it by the bacterial cell concentration of 1×10^4 cell/100 μl with 1% Bacto pepton medium (Difco, USA), they inoculated the strain to Microtitrate Plate (Nunc, USA). The present inventors added both the peptide of the present invention (experimental group 1 and 2) synthesized in the <experimental example 1> and maternal peptide(control group) into the plate after diluting separately by 1/2 times from 25 μM/well, and cultured them for 6 hours at 37° C. In addition, they measured absorbance under 620 nm of wavelength using Microtitrate Plate reader (Merck Elisa reader, Germany) and determined the MIC value of each strain, after then they described the final result in the following Table 2.
# [2] = test system: HaCaT cell line; test: Cytotoxicity in the normal cell line (MTT)
# Protocol: (§3) In order to confirm the cytotoxicity in the normal cell line, which was prepared by the <experimental example 1>, the present inventors measured the cytotoxicity using HaCaT cell line (Dr. N E. Fusenig, Heidelberg, Germany) and NIH3T3 cell line (ATCC(CRL-1658™)).
# (§4) Specifically, they inject HaCaT cell line and NIH3T3 cell line, which were cultured in DMEM badge including 10% FBS (Fetal Bovine Serum), into 96-well plate with 3×10^3 each and cultured them for 24 hours, after then, they treated the peptides prepared by the <experimental example> to the HaCaT cell line and NIH3T3 cell line according to the concentration respectively and reacted them in the 5% CO2 incubator for 24 hours. After culturing, they put 20 ul of MTT (Thiazolyl Blue Tetrazolium Bromide) solution (5 mg/ml in PBS), into each well and reacted them four hours. And they removed supernatant and melted MTT crystal prepared by adding 200 ul of DMSO, and then they studied the result at 560 nm.
# [3] = test system: NIH3T3 cell line; test: Cytotoxicity in the normal cell line (MTT)
# Protocol: as §3, §4
# [4] = test system: human erythrocyte; test: Erythrocyte hemolytic activity; conditions: for hemolytic activity (result in words): human erythrocyte, by the concentration of 200 μM; for % Hemolysis: 8% human erythrocyte in PBS pH 7.0, 1 hour, 1% triton X-100 = 100%
# Protocol: Firstly, the present inventors diluted human erythrocyte with phosphate buffer (PBS, pH 7.0) to be a 8% concentration and then, they diluted each described peptide comprising the amino acid sequence of SEQ. ID. NO: 1 to 3 in the Table 1 continually at the 1/2 concentration starting from 200 μM and make them reacted for 1 hour at 37. After then, the present inventors measured the amount of hemoglobin included in the supernatant obtained by centrifugating it with 1,000 g and the absorbance under the 414 nm of wavelength of the supernatant. In order to investigate relative level a comparative study of cytotoxicity, they measured the absorbance of supernatant with adding 1% triton X-100 (sigma, USA) to the human erythrocyte cell. Making the cytotoxicity of 1% triton X-100 to become a 100%, the present inventors calculated hemolysis of the peptides (experimental group 1 and 2) and maternal peptides (control group) of the present invention according to the following mathematical formula.
# In the mathematical formula, absorbance A means the absorbance of the peptide solution under the 414 nm of wavelength, absorbance B means the absorbance of PBS under the 414 nm of wavelength and absorbance C means the absorbance of 1% triton X-100 under the 414 nm of wavelength.
# [5] = test system: Listeria monocytogenes (ATCC 19115); test: MIC, antimicrobial activity (microtitrate plate, absorbance 620 nm); conditions: Gram positive bacterium; 6 hours at 37° C.
# Source text: as §1, §2
# [6] = test system: Pseudomonas aeruginosa (KCTC 1637); test: as above; conditions: Gram negative bacterium; 6 hours at 37° C.
# Source text: as §1, §2
# [7] = test system: Staphylococcus aureus (ATCC 25923); test: as above; conditions: Gram positive bacterium; 6 hours at 37° C.
# Source text: as §1, §2
# [8] = test system: Salmonella typhimurium; test: as above; conditions: Gram negative bacterium; 6 hours at 37° C.
# Source text: as §1, §2
# [9] = test system: Proteus vulgaris (KCTC 2433); test: as above; conditions: Gram negative bacterium; 6 hours at 37° C.
# Source text: as §1, §2
# [10] = test system: Staphylococcus epidermidis; test: as above; conditions: Gram positive bacterium; 6 hours at 37° C.
# Source text: as §1, §2
# [11] = test system: Escherichia coli (ATCC 25922); test: as above; conditions: Gram negative bacterium; 6 hours at 37° C.
# Source text: as §1, §2
# [12] = NIH3T3 cell line, 24 hours, MTT
substance,measurement,setting,value
"AKRLKKLAKKIWKWK-NH2 [NT3-F1AF8A-A2, AKRLKKLAKKIWKWK-NH2]",MIC Bacillus subtilis,[1],2 µM
same,"cytotoxicity (result in words, FIG. 1)",[2],little cytotoxicity
same,"cytotoxicity (result in words, FIG. 2)",[3],little cytotoxicity
same,hemolytic activity (result in words),[4],no hemolytic activity
same,% Hemolysis,[4]; peptide 3.13 μM,0%
same,% Hemolysis,[4]; peptide 6.25 μM,0%
same,% Hemolysis,[4]; peptide 12.5 μM,0%
same,% Hemolysis,[4]; peptide 25 μM,0%
same,% Hemolysis,[4]; peptide 50 μM,0%
same,% Hemolysis,[4]; peptide 100 μM,0%
same,% Hemolysis,[4]; peptide 200 μM,0%
same,MIC Listeria monocytogenes,[5],2 µM
same,MIC Pseudomonas aeruginosa,[6],2 µM
same,MIC Staphylococcus aureus,[7],4 µM
same,MIC Salmonella typhimurium,[8],1 to 2 µM
same,MIC Proteus vulgaris,[9],2 to 4 µM
same,MIC Staphylococcus epidermidis,[10],2 to 4 µM
same,MIC Escherichia coli,[11],4 µM
"AKRLKKLAKKIWNWK-NH2 [NT3-F1AF8A, AKRLKKLAKKIWNWK-NH2]",MIC Bacillus subtilis,[1],4 µM
same,"cytotoxicity (result in words, FIG. 1)","[2]; HaCaT cell line, 24 hours, MTT",little cytotoxicity
same,"cytotoxicity (result in words, FIG. 2)",[3]; [12],little cytotoxicity
same,hemolytic activity (result in words),[4],no hemolytic activity; also recorded: did not generate hemolytic phenomenon
same,% Hemolysis,[4]; peptide 3.13 μM,0%
same,% Hemolysis,[4]; peptide 6.25 μM,0%
same,% Hemolysis,[4]; peptide 12.5 μM,0%
same,% Hemolysis,[4]; peptide 25 μM,0%
same,% Hemolysis,[4]; peptide 50 μM,0%
same,% Hemolysis,[4]; peptide 100 μM,0%
same,% Hemolysis,[4]; peptide 200 μM,0%
same,MIC Listeria monocytogenes,[5],2 µM
same,MIC Pseudomonas aeruginosa,[6],2 µM
same,MIC Staphylococcus aureus,[7],4 to 8 µM
same,MIC Salmonella typhimurium,[8],2 µM
same,MIC Proteus vulgaris,[9],4 µM
same,MIC Staphylococcus epidermidis,[10],16 µM
same,MIC Escherichia coli,[11],16 to 32 µM
"FKRLKKLFKKIWNWK-NH2 [HPA3NT3, FKRLKKLFKKIWNWK-NH2, reference compound]",MIC Bacillus subtilis,[1],2 µM
same,"cytotoxicity (result in words, FIG. 1)","[2]; HaCaT cell line, 24 hours, MTT",high cytotoxicity
same,"cytotoxicity (result in words, FIG. 2)",[3]; [12],high cytotoxicity
same,% Hemolysis,[4]; peptide 3.13 μM,0%
same,% Hemolysis,[4]; peptide 6.25 μM,0%
same,% Hemolysis,[4]; peptide 12.5 μM,0%
same,% Hemolysis,[4]; peptide 25 μM,0%
same,% Hemolysis,[4]; peptide 50 μM,7.12%
same,% Hemolysis,[4]; peptide 100 μM,11.35%
same,% Hemolysis,[4]; peptide 200 μM,37.23%
same,MIC Listeria monocytogenes,[5],2 µM
same,MIC Pseudomonas aeruginosa,[6],2 µM
same,MIC Staphylococcus aureus,[7],2 µM
same,MIC Salmonella typhimurium,[8],2 µM
same,MIC Proteus vulgaris,[9],8 µM
same,MIC Staphylococcus epidermidis,[10],2 to 4 µM
same,MIC Escherichia coli,[11],4 µM
